# Assay results: patent US20220240499A1, “COMPOSITION AND METHOD FOR CRYOPRESERVATION OF CELLS” (Regents of the University of Minnesota, priority 2019, published 2022)
# Where a SMILES comes first, the peptide text is derived from it. The star is where a group is joined. Cbz = O=C(OCc1ccccc1)*; CH2F = FC*
# Tests used:
# iPS cell aggregates [1] = experiment: Post-thaw cell reattachment (calcein AM, 24 h post-thaw) after controlled-rate freezing, development of buffer and additives; assay type: cell-based, human; conditions: 100%: same as DMSO control; for Post-thaw reattachment rate of cell aggregates buffered in HBSS: HBSS buffer; for Post-thaw reattachment rate of cell aggregates buffered in PBS++: PBS++ buffer
# Procedure: Cells were dissociated using ReLeSR™ and harvested as aggregates without centrifugation in the basal solution at cell concentration of ˜ 3×10^6/ml. Suspension of cell aggregates was loaded into cryovials (Nunc CryoTube, ThermoFisher Scientific) for 0.5 ml/vial. 2× cryopreservation solution was introduced to the cells dropwise for 0.5 ml/vial. Cells were then incubated at room temperature for exactly 30 min before freezing.
# Cryovials of cells were frozen using a controlled-rate freezer (Kryo 10 Series III from Planer PLC in Middlesex, UK) following the steps listed below using a cooling rate, B, of 1° C./min and a seeding (or ice nucleation) temperature, TNUC, of −4° C.: • 1. Starting temperature 20° C. • 2. −10° C./min to 0° C. • 3. Hold at 0° C. for 10 min to equilibrate temperature inside and outside cryovials • 4. −1° C./min to −4° C. • 5. Hold at −4° C. for 15 min • 6. Induce ice nucleation when cryovial internal temperature reaches −4° C. towards the end of step 5 • 7. −1° C./min to −60° C. • 8. −10° C./min to −100° C.
# Frozen cryovials were thawed in a 37° C. water bath. The cryovial was submerged below the lid and agitated for 2.5 min.
# E8 media, either with or without apoptosis inhibitors, was added to the thawed suspension of cell aggregates using a flow rate of ˜ 1 ml/min. Dilution factor of 2 was used, meaning each cryovial of cells was used to produce 1 well of a 6-well plate of post-thaw cell culture. Diluted cells were seeded onto a freshly coated culture vessel and placed in 5% CO2 at 37° C. incubator undisturbed for 24 h.
# Ability of cryopreserved cells to re-establish culture after thawing was assessed based on a metric of post-thaw cell reattachment. Thawed cells were plated at a specified split ratio. After 24 h, post-thaw culture was washed and stained for live cells with esterase activity using cell permeant dye calcein AM (ThermoFisher Scientific). Live cells in each sample were quantified using a Synergy HT microplate reader (BioTek) in scan mode based on mean fluorescence intensity. Fluorescence measurement was normalized to controls, which were either fresh cells passaged with the same cell density or cells cryopreserved with the same pre-freeze cell concentration using a DMSO-based control formulation, to determine the value of post-thaw cell reattachment for each sample in arbitrary unit.
# Controlled-rate freezing protocol remained constant with a cooling rate of 1° C./min and an ice nucleation temperature of −4° C.
# (§1) Different forms of cellular damage were identified. Low-temperature spectroscopy was conducted as described earlier to characterize the formation of intracellular ice at −50° C. Both pre-freeze and post-thaw, cells were stained for ROS and free radicals using H2DCFDA (ROS Detection Assay Kit, BioVision) at 37° C. for 45 min to characterize oxidative stress by immunofluorescence and microplate assay. Thawed cells were also stained for caspase enzyme activity using FAM-FLICA (from ImmunoChemistry Technologies, LLC in Bloomington, Minn.) to detect apoptosis. Size of cell aggregates post-thaw was observed visually. Post-thaw cell recovery, reattachment and proliferation were measured as described earlier. Cells cryopreserved using 10% DMSO in PBS++ was used as a control. Brightfield and fluorescent images were acquired using a Carl Zeiss Axioskop 50 with a 10× air objective (NA 0.30, Plan-Neofluar, Carl Zeiss) or a 20× air objective (NA 0.50, Plan-Neofluar, Carl Zeiss) and a Spot Insight Firewire 2 Camera. Microplate assay was quantified using a Synergy HT microplate reader (BioTek).
# Different types of additives were tested. P188 5% w/v was added to both the basal solution and the 2× cryopreservation solution to stabilize cell membrane. 2× NEAA was added pre-freeze to the 2× cryopreservation solution to conserve cellular energy. […]
# iPS cell aggregates [2] = experiment: Cell proliferation of post-thaw culture from 24 to 48 h; assay type: cell-based, human; conditions: 1: no net change in total live cell count in culture
# Procedure: as §1
# Different types of additives were tested. P188 5% w/v was added to both the basal solution and the 2× cryopreservation solution to stabilize cell membrane. 2× NEAA was added pre-freeze to the 2× cryopreservation solution to conserve cellular energy. The following molecules were used to target general or specific apoptosis pathways and added at the given working concentration either pre-freeze or post-thaw: 10 μM rho kinase inhibitor (or ROCK inhibitor, Y-27632, […] Technologies), 20 μM pan caspase inhibitor (Z-VAD-FMK, from ApexBio Technology LLC in Houston, Tex.), 1 μg/ml Fas ligand inhibitor (Recombinant Human Fas/TNFRSF6-Fc Chimera from BioLegend in San Diego, Calif.), 100 ng/ml each of TNF-related apoptosis-inducing ligand (TRAIL) inhibitors targeting TRAIL receptor 1 (Recombinant Human TNFRSF10A-Fc Chimera, BioLegend), TRAIL receptor 2 (Recombinant Human TNFRSF10B-Fc Chimera, BioLegend), and TRAIL receptor 4 (Recombinant Human TNFRSF10D-Fc Chimera, BioLegend) respectively.
# iPS cell aggregates [3] = experiment: Screening of osmolytes for wash-free cryopreservation (cytotoxicity limits by cell reattachment); conditions: 300 mM, 30 min, in HBSS at room temperature; observed 24 hours later
# Procedure: Different types of sugars (disaccharides) and sugar alcohols (all BioUltra or PharmaGrade, Sigma-Aldrich) were individually tested for cytotoxicity limits based on its effect on cell reattachment. In consideration for pre-freeze cell processing, each molecule of a given concentration among 300 mM, 150 mM, and 75 mM was used to incubate cell aggregates suspended in HBSS at room temperature for 30 minutes or 1 hour. Then, in consideration of wash-free thawing at minimum dilution ratio of 2, each sample of cell aggregates were mixed at 1:1 volume ratio with E8 media and plated on vitronectin-coated culture vessel. 24 hours later, cell reattachment was observed qualitatively under a Nikon TMS inverted phase contrast microscope. Disaccharides included sucrose, trehalose, maltose, and lactose.
compound,measurement,setting,value
"COC(=O)C[C@H](NC(=O)[C@H](C)NC(=O)[C@@H](NC(=O)OCc1ccccc1)C(C)C)C(=O)CF [Pan caspase, Z-VAD-FMK] (Cbz-Val-Ala-Asp(OMe)-CH2F)",Post-thaw reattachment rate of cell aggregates buffered in HBSS,iPS cell aggregates [1]; inhibitor added post-thaw,100%
same,Post-thaw reattachment rate of cell aggregates buffered in PBS++,iPS cell aggregates [1]; inhibitor added post-thaw,30%
same,Post-thaw reattachment rate of cell aggregates buffered in PBS++,iPS cell aggregates [1]; inhibitor added pre-freeze,15%
same,Cell proliferation of culture cryopreserved in HBSS from 24 to 48 h post-thaw,iPS cell aggregates [2]; inhibitors added post-thaw,3.312
"C[C@@H](N)[C@H]1CC[C@H](C(=O)Nc2ccncc2)CC1 [Rho kinase, Y-27632]",Post-thaw reattachment rate of cell aggregates buffered in HBSS,iPS cell aggregates [1]; inhibitor added pre-freeze,104%
same,Post-thaw reattachment rate of cell aggregates buffered in PBS++,iPS cell aggregates [1]; inhibitor added post-thaw,11%
same,Post-thaw reattachment rate of cell aggregates buffered in PBS++,iPS cell aggregates [1]; inhibitor added pre-freeze,109%
same,Cell proliferation of culture cryopreserved in HBSS from 24 to 48 h post-thaw,iPS cell aggregates [2]; inhibitors added pre-freeze,0.967
Fas ligand,Post-thaw reattachment rate of cell aggregates buffered in HBSS,iPS cell aggregates [1]; inhibitor added post-thaw,106%
same,Post-thaw reattachment rate of cell aggregates buffered in HBSS,iPS cell aggregates [1]; inhibitor added pre-freeze,76%
same,Post-thaw reattachment rate of cell aggregates buffered in PBS++,iPS cell aggregates [1]; inhibitor added post-thaw,62%
same,Post-thaw reattachment rate of cell aggregates buffered in PBS++,iPS cell aggregates [1]; inhibitor added pre-freeze,45%
same,Cell proliferation of culture cryopreserved in HBSS from 24 to 48 h post-thaw,iPS cell aggregates [2]; inhibitors added post-thaw,1.749
same,Cell proliferation of culture cryopreserved in HBSS from 24 to 48 h post-thaw,iPS cell aggregates [2]; inhibitors added pre-freeze,1.713
ethylene glycol,Conditions and observation: cell reattachment after incubation,iPS cell aggregates [3],"many colonies, normal morphology"
